Results from ChEMBL document CHEMBL1133412, “Rational design, synthesis and structure-activity relationships of antitumor (E)-2-benzylidene-1-tetralones and (E)-2-benzylidene-1-indanones” (Bioorg Med Chem Lett, 2000).

Key:
B16 [1] = experiment: Cytotoxicity was evaluated against B16 tumor cell lines; Significant activity; format: functional, cell-based; settings: Mus musculus
NCI-H596 [2] = experiment: Cytotoxicity evaluated against H596 tumor cell lines; Significant activity; format: functional, cell-based; settings: Homo sapiens
L1210 [3] = experiment: Cytotoxicity evaluated against L1210 tumor cell lines; Significant activity; format: functional, cell-based; settings: Mus musculus
NCI-H292 [4] = experiment: Cytotoxicity evaluated against H292 tumor cell lines; Significant activity; format: functional, cell-based; settings: Homo sapiens
WIL2 [5] = experiment: Cytotoxicity evaluated against WIL2 tumor cell lines; Significant activity; format: functional, cell-based; settings: Homo sapiens
K562 [6] = experiment: Cytotoxicity evaluated against K562 tumor cell lines; Significant activity; format: functional, cell-based; settings: Homo sapiens
MOLT-4 [7] = experiment: Cytotoxicity was evaluated against Molt-4 tumor cell lines; format: functional, cell-based; settings: Homo sapiens
CCRF-CEM [8] = experiment: Cytotoxicity evaluated against CEM tumor cell lines; Significant activity; format: functional, cell-based; settings: Homo sapiens
WI-38 [9] = experiment: Cytotoxicity evaluated against WI38 tumor cell lines; Significant activity; format: functional, cell-based; settings: Homo sapiens
HL-60 [10] = experiment: Cytotoxicity evaluated against HL-60 tumor cell lines; Significant activity; format: functional, cell-based; settings: Homo sapiens
A549 [11] = experiment: Cytotoxicity evaluated against A549 tumor cell lines; significant activity; format: functional, cell-based; settings: Homo sapiens
MCF7 [12] = experiment: Cytotoxicity evaluated against MCF-7 tumor cell lines; Significant activity; format: functional, cell-based; settings: Homo sapiens
Tumor cell line = experiment: In vivo testing against tumor cells that were placed in the polyvinylidene fluoride (PVDF) hollow fibers of capsules and then implanted in to mice intraperitoneally or subcutaneously; format: functional, Mus musculus
NIH3T3 [13] = experiment: Cytotoxicity evaluated against NIH3T3 tumor cell lines; Significant activity; format: functional, cell-based; settings: Mus musculus
Jurkat = experiment: In vitro test for antitumor activity against human Jurkat cell line using a formazan dye (MTT) conversion assay.; format: functional, cell-based
WI-38 [14] = experiment: Cytotoxicity was evaluated against WI38 tumor cell lines; Significant activity; format: functional, cell-based; settings: Homo sapiens
A549 [15] = experiment: Cytotoxicity was evaluated against A549 tumor cell lines; Slightly active; format: functional, cell-based; settings: Homo sapiens
MOLT-4 [16] = experiment: Cytotoxicity was evaluated against Molt-4 tumor cell lines; Slightly active; format: functional, cell-based; settings: Homo sapiens
K562 [17] = experiment: Cytotoxicity was evaluated against K562 tumor cell lines; Slightly active; format: functional, cell-based; settings: Homo sapiens
NCI-H596 [18] = experiment: Cytotoxicity was evaluated against H596 tumor cell lines; Slightly active; format: functional, cell-based; settings: Homo sapiens
WI-38 [19] = experiment: Cytotoxicity was evaluated against WI38 tumor cell lines; Slightly active; format: functional, cell-based; settings: Homo sapiens
WIL2 [20] = experiment: Cytotoxicity was evaluated against WIL2 tumor cell lines; Slightly active; format: functional, cell-based; settings: Homo sapiens
HL-60 [21] = experiment: Cytotoxicity was evaluated against HL-60 tumor cell lines; Slightly active; format: functional, cell-based; settings: Homo sapiens
B16 [22] = experiment: Cytotoxicity was evaluated against B16 tumor cell lines; Slightly active; format: functional, cell-based; settings: Mus musculus
NIH3T3 [23] = experiment: Cytotoxicity was evaluated against NIH3T3 tumor cell lines; Slightly active; format: functional, cell-based; settings: Mus musculus
NCI-H292 [24] = experiment: Cytotoxicity was evaluated against H292 tumor cell lines; Slightly active; format: functional, cell-based; settings: Homo sapiens
L1210 [25] = experiment: Cytotoxicity was evaluated against L1210 tumor cell lines; Slightly active; format: functional, cell-based; settings: Mus musculus
CCRF-CEM [26] = experiment: Cytotoxicity was evaluated against CEM tumor cell lines; Slightly active; format: functional, cell-based; settings: Homo sapiens
MCF7 [27] = experiment: Cytotoxicity was evaluated against MCF-7 tumor cell lines; Slightly active; format: functional, cell-based; settings: Homo sapiens

Row | Compound | Cytotoxicity (B16 [1]) | Cytotoxicity (NCI-H596 [2]) | Cytotoxicity (L1210 [3]) | Cytotoxicity (NCI-H292 [4]) | Cytotoxicity (WIL2 [5]) | Cytotoxicity (K562 [6]) | Cytotoxicity (MOLT-4 [7]) | Cytotoxicity (CCRF-CEM [8]) | Cytotoxicity (WI-38 [9]) | Cytotoxicity (HL-60 [10]) | Cytotoxicity (A549 [11]) | Cytotoxicity (MCF7 [12]) | IP+SC score (Tumor cell line) | Cytotoxicity (NIH3T3 [13]) | IC50 (Jurkat) [nM] | also measured
1 | COc1cc2c(cc1OC)C(=O)/C(=C/c1cc(C)cc(C)c1)C2 | Significant activity | Significant activity | Significant activity | Significant activity | Significant activity | Significant activity | Significant activity | Significant activity | Significant activity | Significant activity | Significant activity | Significant activity | <20 | Significant activity | 80 | –
2 | COc1cc2c(cc1OC)C(=O)/C(=C/c1cc(Cl)cc(Cl)c1)C2 | Significant activity | Significant activity | Significant activity | Significant activity | Significant activity | Significant activity | Significant activity | Significant activity | Significant activity | Significant activity | Significant activity | Significant activity | <20 | Significant activity | 2000 | –
3 | COc1cc2c(c(N)c1OC)C(=O)/C(=C/c1cc(C)c(O)c(C)c1)C2 | Significant activity | Significant activity | Significant activity | Significant activity | Significant activity | Significant activity | Significant activity | Significant activity | Significant activity | Significant activity | Significant activity | Significant activity | >20 | Significant activity | 4 | –
4 | COc1cccc(/C=C2\CCc3cc(OC)c(OC)cc3C2=O)c1 | Significant activity | Significant activity | Significant activity | Significant activity | Significant activity | Significant activity | Significant activity | Significant activity | – | Significant activity | Significant activity | Significant activity | – | Significant activity | 5000 | Cytotoxicity (WI-38 [14]): Significant activity
5 | COc1cc2c(cc1OC)C(=O)/C(=C/c1cc(C)c(O)c(C)c1)C2 | Significant activity | Significant activity | Significant activity | Significant activity | Significant activity | Significant activity | Significant activity | Significant activity | Significant activity | Significant activity | Significant activity | Significant activity | >20 | Significant activity | 6 | –
6 | COc1cc2c(c([N+](=O)[O-])c1O)C/C(=C\c1cc(C)c(O)c(C)c1)C2=O | Significant activity | Significant activity | Significant activity | Significant activity | Significant activity | Significant activity | Significant activity | Significant activity | – | Significant activity | Significant activity | Significant activity | – | Significant activity | 9300 | Cytotoxicity (WI-38 [14]): Significant activity
7 | COc1cc2c(cc1OC)C(=O)/C(=C/c1cc(C)c(OC(=O)OCC(C)C)c(C)c1)C2 | – | – | – | – | – | – | – | – | – | – | – | – | – | – | 21500 | Cytotoxicity (A549 [15]): Weak activity; Cytotoxicity (MOLT-4 [16]): Weak activity; Cytotoxicity (K562 [17]): Weak activity; Cytotoxicity (NCI-H596 [18]): Weak activity; Cytotoxicity (WI-38 [19]): Weak activity; Cytotoxicity (WIL2 [20]): Weak activity; Cytotoxicity (HL-60 [21]): Weak activity; Cytotoxicity (B16 [22]): Weak activity; Cytotoxicity (NIH3T3 [23]): Weak activity; Cytotoxicity (NCI-H292 [24]): Weak activity; Cytotoxicity (L1210 [25]): Weak activity; Cytotoxicity (CCRF-CEM [26]): Weak activity; Cytotoxicity (MCF7 [27]): Weak activity
8 | COc1cc(/C=C2\Cc3cc(OC)c(OC)cc3C2=O)cc(OC)c1 | Significant activity | Significant activity | Significant activity | Significant activity | Significant activity | Significant activity | Significant activity | Significant activity | Significant activity | Significant activity | Significant activity | Significant activity | <20 | Significant activity | 3000 | –
